Test results: publication PMC11476419, “Analysis of Punicalin and Punicalagin Interaction with PDIA3 and PDIA1” (International Journal of Molecular Sciences, 2024)

Columns and labels:
PDIA1 = target: T1, PDIA1 (Homo sapiens, UniProt P07237); assay: Intrinsic tryptophan fluorescence quenching; format: binding
T1 construct: The mature human PDIA1 with an N-terminal His6x-tag was expressed and purified; His6 (N); made in house
Experimental: (§1) In a previous article, we evaluated the ability of punicalagin to interact with PDIA1 and PDIA3 [40]. In this study, the results previously obtained were compared with those obtained using punicalin. The protein–ligand interaction was evaluated by intrinsic quenching analysis due to the presence, in both proteins, of aromatic amino acids, among which tryptophan residues represent the main source. Quenching analysis was performed on PDIA1 and PDIA3, in the reduced form, by adding increasing concentrations of punicalin and recording the fluorescence spectra of both proteins. […] Quenching of intrinsic tryptophan fluorescence of both proteins was assessed using the Stern–Volmer equation, as previously reported. To further characterize the binding process, fluorescence data were analyzed using the equation described by Bi et al. and the reiterative calculation process described by Sun et al., providing an estimated value of the dissociation constant (Kd). The values of the Stern–Volmer constant (KSV) and the Kd obtained for punicalin are summarized in Table 1 and compared with those obtained for punicalagin [40]. The comparison of the results confirms that punicalin can bind both PDIs, although showing a slightly lesser affinity with respect to punicalagin.
(§2) The mature recombinant form (devoid of the N-terminal […]) of the human PDIA3 protein was expressed and purified according to the procedure previously described. […] In both cases, protein purification was evaluated by SDS-PAGE and Coomassie Blue staining, while the concentration was spectrophotometrically estimated using the extinction coefficient (PDIA3 in the reduced form, ε280 = 44,810 M^−1cm^−1; PDIA1 in the reduced form, ε280 = 45,567 M^−1cm^−1).
(§3) Protein–ligand interactions were evaluated by titration of intrinsic fluorescence quenching. Protein mission spectra were recorded by a SPEX-FluoroMax spectrofluorometer (Horiba Scientific, Piscataway, NJ, USA) from 300 to 400 nm, with an excitation wavelength set at 290 nm, emission slit set width, a 2 nm bandpass, and a scan speed set at 120 nm min^−1. […] The emission spectrum of the protein was recorded and the fluorescence intensities at 338 nm, obtained in at least three independent titration experiments, were used for quenching analyses, as previously described. Quenching of intrinsic tryptophan fluorescence at 338 nm was analyzed by the Stern–Volmer equation (Fo/F = 1 + KSV[L]), where F and Fo are the fluorescence intensity, respectively with or without ligand (L), and KSV is the Stern–Volmer constant value. Fluorescence data at 338 nm were also analyzed using the equation described by Bi et al. and the reiterative calculation process described by Sun et al., providing an estimated value of Kd.

PDIA3 = target: T2, PDIA3 (Homo sapiens, UniProt P30101); assay: Intrinsic tryptophan fluorescence quenching; format: binding
T2 construct: The mature recombinant form (devoid of the N-terminal […]) of the human PDIA3 protein was expressed and purified; made in house
T2 sequence (P30101 25-505): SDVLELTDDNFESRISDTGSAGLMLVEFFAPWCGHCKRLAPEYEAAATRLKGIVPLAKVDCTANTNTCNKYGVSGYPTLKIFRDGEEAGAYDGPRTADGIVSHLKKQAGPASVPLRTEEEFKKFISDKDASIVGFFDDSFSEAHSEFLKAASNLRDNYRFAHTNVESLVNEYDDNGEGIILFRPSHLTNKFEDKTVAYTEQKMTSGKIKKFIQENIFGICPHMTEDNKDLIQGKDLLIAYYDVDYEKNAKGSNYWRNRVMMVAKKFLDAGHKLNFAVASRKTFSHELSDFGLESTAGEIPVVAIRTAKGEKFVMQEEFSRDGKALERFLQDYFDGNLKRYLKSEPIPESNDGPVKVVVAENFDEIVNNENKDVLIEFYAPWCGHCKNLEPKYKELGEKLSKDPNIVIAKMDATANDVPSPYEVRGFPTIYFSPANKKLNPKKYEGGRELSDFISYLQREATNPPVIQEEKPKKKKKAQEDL
Experimental: as §1, §2, §3

T98G cells = assay: Cell counting (crystal violet); format: cell-based, human
Experimental: (§4) The number of cells was evaluated after 24 h, 48 h, and 72 h of treatment with punicalin at the concentration of 5 µM and 20 µM (Figure 5b). […] However, an increase in the cell number occurred after 72 h of treatment with punicalin at a 5 µM concentration.
(§5) T98G and U-87 MG cells were seeded into 12-well plates (70,000 cells/well) and treated with 5 µM and 20 µM concentrations of punicalin for 24 h, 48 h, and 72 h. At the end of incubation, the cells were washed with PBS (Sigma-Aldrich, cat. D8662), fixed with cold methanol for 20 min, stained with 0.1% crystal violet in methanol/PBS (ratio 1:4) at room temperature for 1 h, and washed again in PBS. To estimate the number of cells remaining in each well, the crystal violet was solubilized by adding a methanol/water solution (50% v/v) and the absorbance at 595 nm was measured.

U87 MG cells = assay: Cell counting (crystal violet); format: cell-based, human; conditions: 5 µM and 20 µM, 24 h, 48 h, 72 h
Experimental: as §4, §5

T1 sequence (P07237 18-508): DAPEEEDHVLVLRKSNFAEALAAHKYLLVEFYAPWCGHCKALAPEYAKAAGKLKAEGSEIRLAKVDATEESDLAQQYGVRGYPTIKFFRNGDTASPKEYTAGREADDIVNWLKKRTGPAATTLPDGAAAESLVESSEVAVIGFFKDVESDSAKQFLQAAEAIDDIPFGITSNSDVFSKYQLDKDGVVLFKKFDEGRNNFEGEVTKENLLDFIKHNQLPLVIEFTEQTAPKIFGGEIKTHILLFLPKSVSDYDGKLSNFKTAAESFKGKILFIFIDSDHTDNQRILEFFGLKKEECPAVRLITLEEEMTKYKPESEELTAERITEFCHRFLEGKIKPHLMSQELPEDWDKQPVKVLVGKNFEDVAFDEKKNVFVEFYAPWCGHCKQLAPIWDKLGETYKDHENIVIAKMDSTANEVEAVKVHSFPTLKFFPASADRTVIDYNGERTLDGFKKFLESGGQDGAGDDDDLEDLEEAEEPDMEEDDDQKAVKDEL

Stern–Volmer constant (KSV) (PDIA1; reduced PDIA1 0.1 × 10^−6 M, pH 7.4, 25 °C, mean and SEM): 64.0 ± 0.4 M^−1 × 10^3 | Kd (PDIA1; reduced PDIA1, pH 7.4, 25 °C, estimated from quenching data, read-out: dissociation constant (Kd)): 16 µM | Stern–Volmer constant (KSV) (PDIA3; reduced PDIA3 0.1 × 10^−6 M, pH 7.4, 25 °C, mean and SEM): 73.7 ± 0.7 M^−1 × 10^3 | Kd (PDIA3; reduced PDIA3, pH 7.4, 25 °C, estimated from quenching data, read-out: dissociation constant (Kd)): 14 µM
SMILES: O=C1OC[C@H]2OC(O)[C@H](O)[C@@H](O)[C@@H]2OC(=O)c2cc(O)c(O)c(O)c2-c2c(O)c(O)c3oc(=O)c4c(c(O)c(O)c5oc(=O)c2c3c54)-c2c1cc(O)c(O)c2O (mixture of isomers) [Punicalin, punicalin]
kind of effect on cells (T98G cells; 5 µM): preferential cytostatic effect | kind of effect on cells (T98G cells; 20 µM): cytotoxic | effect on cell number (T98G cells; 48 h, 5 µM and 20 µM): marked reduction in the T98G cell number | effect on cell number (U87 MG cells): the effect is evident only at the highest concentration used
